Reference: patent publication US20250011368A1, “DLL3 TARGETING PEPTIDES AND CONSTRUCTS THEREOF” (MARIANA ONCOLOGY INC., priority 2023, published 2025)
pKd: −log10 of the molar value. Read-outs that look alike come from different tables or passages of the source. Numbered stars: 1 amine (or outer) side, 2 acyl side, 3 side chain; on linkers, the order of the positions; unused ones are H or OH. Bridge positions count the residues as written; N and C are the ends. Square brackets hold non-standard residues; d marks the D form. Peptide text beside a SMILES is read from it. * marks the point of attachment. X11 = O=C(O)CN1CCN(CC(=O)O)CCN(CC(=O)NCCCC[C@@H](NC(=O)COCCOCCOCCOCCOCCOCCOCCOCCNC(=O)Cc2ccc(Br)cc2)C(=O)NCCOCCOCCOCCOCCOCCOCCOCCOCC(=O)*)CCN(CC(=O)O)CC1; DOTA = O=C(O)CN1CCN(CC(=O)O)CCN(CC(=O)*)CCN(CC(=O)O)CC1; Trp(5-F) = N[C@@H](Cc1c[nH]c2ccc(F)cc12)C(=O)O; Phe(2-CF3) = N[C@@H](Cc1ccccc1C(F)(F)F)C(=O)O; Trp(7-aza) = N[C@@H](Cc1c[nH]c2ncccc12)C(=O)O; Pro(trans-4-F) = O=C(O)[C@@H]1C[C@@H](F)CN1; Lys(Me3) = C[N+](C)(C)CCCC[C@H](N)C(=O)O; 1Nal = N[C@@H](Cc1cccc2ccccc12)C(=O)O; 2Nal = N[C@@H](Cc1ccc2ccccc2c1)C(=O)O; Gly(4-THP) = N[C@H](C(=O)O)C1CCOCC1; pXylylene = c1cc(C[*:2])ccc1C[*:1]; Nva(3-Et) = CCC(CC)[C@H](N)C(=O)O; Tle = CC(C)(C)[C@H](N)C(=O)O; Nle = CCCC[C@H](N)C(=O)O; Aze = O=C(O)[C@@H]1CCN1

Molecular target: T1, human DLL3 (Homo sapiens, UniProt Q9NYJ7)
T1 sequence (Q9NYJ7 27-618): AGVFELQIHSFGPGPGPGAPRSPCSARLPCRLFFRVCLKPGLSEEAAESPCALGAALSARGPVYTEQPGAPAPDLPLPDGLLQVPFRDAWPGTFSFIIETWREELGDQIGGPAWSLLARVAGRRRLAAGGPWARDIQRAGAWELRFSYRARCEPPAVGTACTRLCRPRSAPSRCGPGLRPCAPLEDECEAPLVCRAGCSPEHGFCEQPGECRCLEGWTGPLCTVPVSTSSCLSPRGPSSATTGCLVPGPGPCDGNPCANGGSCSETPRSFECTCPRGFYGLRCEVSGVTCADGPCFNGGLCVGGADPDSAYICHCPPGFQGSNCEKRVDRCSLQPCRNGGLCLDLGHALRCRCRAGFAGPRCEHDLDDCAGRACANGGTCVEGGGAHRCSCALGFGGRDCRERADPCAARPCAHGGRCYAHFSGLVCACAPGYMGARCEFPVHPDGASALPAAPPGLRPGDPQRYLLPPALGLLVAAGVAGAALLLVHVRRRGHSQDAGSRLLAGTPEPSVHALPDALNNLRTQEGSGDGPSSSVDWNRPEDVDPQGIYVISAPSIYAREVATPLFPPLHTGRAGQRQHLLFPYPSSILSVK
Test: Affinity determination by Surface Plasmon Resonance (SPR)
Assay type: binding
In short: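 Biotinylated human DLL3 was captured on a streptavidin chip with a reference surface. Compounds at several concentrations were injected at 100 μL/minute in phosphate buffer (137 mM NaCl, 2.7 mM KCl, 0.05% P20, 2% DMSO). Affinity and kinetics came from 1:1 model fits of the sensorgrams.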

[1] = 25° C., biotinylated human DLL3 immobilized on streptavidin sensor chip, 1:1 binding model, read-out: SPR KD

Row | pKd [1] | Compound | pKd
1 | 8.00 to 9.00 | CC[C@H](C)[C@H](NC(=O)[C@@H](NC(=O)[C@H](Cc1c[nH]c2ccccc12)NC(C)=O)[C@@H](C)O)C(=O)N[C@H]1CSSC[C@@H](C(=O)N[C@@H](Cc2c[nH]c3ccccc23)C(=O)N2CCC[C@H]2C(=O)N[C@H](CCCCNC(=O)CN2CCN(CC(=O)O)CCN(CC(=O)O)CCN(CC(=O)O)CC2)C(N)=O)NC(=O)[C@H](CC(=O)O)NC(=O)[C@H](CCCC[N+](C)(C)C)NC(=O)[C@H](Cc2ccc3ccccc3c2)NC(=O)[C@H](CC(N)=O)NC(=O)[C@H](CC(N)=O)NC1=O [compound 238, Ac-W-T-I-C(3)-N-N-(2Nal)-(K(Me)3)-D-C(3)-W-P-[D-Lys(DOTA)]-NH2] (Ac-WTICNN[2Nal][Lys(Me3)]DCWP[dK](DOTA)-NH2; disulfide 4-10) | 
2 | 8.00 to 9.00 | CCC(CC)[C@H](NC(=O)[C@@H](NC(=O)[C@H](Cc1c[nH]c2ccc(F)cc12)NC(C)=O)[C@@H](C)O)C(=O)N[C@H]1CSSC[C@@H](C(=O)N[C@@H](Cc2c[nH]c3ncccc23)C(=O)N2CC[C@H]2C(=O)N[C@@H](CCCCNC(=O)CN2CCN(CC(=O)O)CCN(CC(=O)O)CCN(CC(=O)O)CC2)C(N)=O)NC(=O)[C@H](CC(=O)O)NC(=O)[C@H](Cc2c[nH]cn2)NC(=O)[C@H](Cc2cccc3ccccc23)NC(=O)[C@H](CC(N)=O)NC(=O)[C@H](CC(N)=O)NC1=O [compound 241, Ac-(5Fluoro-W)-T-(Env)-C(3)-N-N-(1Nal)-H-D-C(3)-(7Aza-W)-(Aze)-[D-Lys(DOTA)]-NH2] (Ac-[Trp(5-F)]T[Nva(3-Et)]CNN[1Nal]HDC[Trp(7-aza)][Aze]K(DOTA)-NH2; disulfide 4-10) | 
3 | > 9.00 | CCC(CC)[C@H](NC(=O)[C@@H](NC(=O)[C@H](Cc1c[nH]c2ccc(F)cc12)NC(C)=O)[C@@H](C)O)C(=O)N[C@H]1CSSC[C@@H](C(=O)N[C@@H](Cc2c[nH]c3ncccc23)C(=O)N2C[C@H](F)C[C@H]2C(=O)N[C@@H](CCCCNC(=O)CN2CCN(CC(=O)O)CCN(CC(=O)O)CCN(CC(=O)O)CC2)C(N)=O)NC(=O)[C@H](CC(=O)O)NC(=O)[C@H](Cc2cnc[nH]2)NC(=O)[C@H](Cc2ccc3ccccc3c2)NC(=O)[C@H](CC(N)=O)NC(=O)[C@H](CC(N)=O)NC1=O [compound 242, Ac-(5Fluoro-W)-T-(Env)-C(3)-N-N-(2Nal)-H-D-C(3)-(7Aza-W)-(trans4Fluoro-P)-[D-Lys(DOTA)]-NH2] (Ac-[Trp(5-F)]T[Nva(3-Et)]CNN[2Nal]HDC[Trp(7-aza)][Pro(trans-4-F)]K(DOTA)-NH2; disulfide 4-10) | 
4 | > 9.00 | CC(=O)N[C@@H](Cc1c[nH]c2ccc(F)cc12)C(=O)N[C@H](C(=O)N[C@H](C(=O)N[C@H]1CSSC[C@@H](C(=O)N[C@@H](Cc2c[nH]c3ncccc23)C(=O)N2C[C@H](F)C[C@H]2C(=O)N[C@@H](CCCCNC(=O)CN2CCN(CC(=O)O)CCN(CC(=O)O)CCN(CC(=O)O)CC2)C(N)=O)NC(=O)[C@H](CC(=O)O)NC(=O)[C@H](Cc2c[nH]cn2)NC(=O)[C@H](Cc2ccc3ccccc3c2)NC(=O)[C@H](CC(N)=O)NC(=O)[C@H](CC(N)=O)NC1=O)C1CCOCC1)[C@@H](C)O [compound 243, Ac-(5Fluoro-W)-T-(THPG)-C(3)-N-N-(2Nal)-H-D-C(3)-(7Aza-W)-(trans4Fluoro-P)-[D-Lys(DOTA)]-NH2] (Ac-[Trp(5-F)]T[Gly(4-THP)]CNN[2Nal]HDC[Trp(7-aza)][Pro(trans-4-F)]K(DOTA)-NH2; disulfide 4-10) | 
5 | > 9.00 | CCCC[C@H](NC(=O)[C@@H](NC(=O)[C@H](Cc1c[nH]c2ccc(F)cc12)NC(C)=O)[C@@H](C)O)C(=O)N[C@H]1CSSC[C@@H](C(=O)N[C@@H](Cc2c[nH]c3ncccc23)C(=O)N2C[C@H](F)C[C@H]2C(=O)N[C@H](CCCCNC(=O)CN2CCN(CC(=O)O)CCN(CC(=O)O)CCN(CC(=O)O)CC2)C(N)=O)NC(=O)[C@H](CC(=O)O)NC(=O)[C@H](Cc2c[nH]cn2)NC(=O)[C@H](Cc2ccc3ccccc3c2)NC(=O)[C@H](CC(N)=O)NC(=O)[C@H](CC(N)=O)NC1=O [compound 244, Ac-(5Fluoro-W)-T-(Nle)-C(3)-N-N-(2Nal)-H-D-C(3)-(7Aza-W)-(trans4Fluoro-P)-[D-Lys(DOTA)]-NH2] (Ac-[Trp(5-F)]T[Nle]CNN[2Nal]HDC[Trp(7-aza)][Pro(trans-4-F)][dK](DOTA)-NH2; disulfide 4-10) | 
6 | > 9.00 | CC(=O)N[C@@H](Cc1c[nH]c2ccc(F)cc12)C(=O)N[C@H](C(=O)N[C@@H](Cc1ccccc1C(F)(F)F)C(=O)N[C@H]1CSSC[C@@H](C(=O)N[C@@H](Cc2c[nH]c3ncccc23)C(=O)N2C[C@H](F)C[C@H]2C(=O)N[C@@H](CCCCNC(=O)CN2CCN(CC(=O)O)CCN(CC(=O)O)CCN(CC(=O)O)CC2)C(N)=O)NC(=O)[C@H](CC(=O)O)NC(=O)[C@H](Cc2cnc[nH]2)NC(=O)[C@H](Cc2ccc3ccccc3c2)NC(=O)[C@H](CC(N)=O)NC(=O)[C@H](CC(N)=O)NC1=O)[C@@H](C)O [compound 246, Ac-(5Fluoro-W)-T-(2CF3-F)-C(3)-N-N-(2Nal)-H-D-C(3)-(7Aza-W)-(trans4Fluoro-P)-[D-Lys(DOTA)]-NH2] (Ac-[Trp(5-F)]T[Phe(2-CF3)]CNN[2Nal]HDC[Trp(7-aza)][Pro(trans-4-F)]K(DOTA)-NH2; disulfide 4-10) | 
7 |  | CC[C@H](C)[C@H](NC(=O)[C@@H](NC(=O)[C@H](Cc1c[nH]c2ccccc12)NC(C)=O)[C@@H](C)O)C(=O)N[C@H]1CSSC[C@@H](C(=O)N[C@@H](Cc2c[nH]c3ccccc23)C(=O)N2CCC[C@H]2C(=O)N[C@H](CCCCNC(=O)COCCOCCOCCOCCOCCOCCOCCOCCNC(=O)[C@@H](CCCCNC(=O)CN2CCN(CC(=O)O)CCN(CC(=O)O)CCN(CC(=O)O)CC2)NC(=O)COCCOCCOCCOCCOCCOCCOCCOCCNC(=O)Cc2ccc(Br)cc2)C(N)=O)NC(=O)[C@H](CC(=O)O)NC(=O)[C@H](Cc2c[nH]cn2)NC(=O)[C@H](Cc2ccc3ccccc3c2)NC(=O)[C@H](CC(N)=O)NC(=O)[C@H](CC(N)=O)NC1=O [compound 251, Ac-W-T-I-C(3)-N-N-(2Nal)-H-D-C(3)-W-P-{D-Lys[PEG8-D-Lys(DOTA)-PEG8-COCH2Ph-4Br]}-NH2] (Ac-WTICNN[2Nal]HDCWP[dK](X11)-NH2; disulfide 4-10) | > 9.00
8 |  | CC[C@H](C)[C@H](NC(=O)[C@@H](NC(=O)[C@H](Cc1c[nH]c2ccccc12)NC(C)=O)[C@@H](C)O)C(=O)N[C@H]1CSSC[C@@H](C(=O)N[C@@H](Cc2c[nH]c3ccccc23)C(=O)N2CCC[C@H]2C(=O)N[C@H](CCCCNC(=O)COCCOCCOCCOCCOCCOCCOCCOCCNC(=O)[C@@H](CCCCNC(=O)CN2CCN(CC(=O)O)CCN(CC(=O)O)CCN(CC(=O)O)CC2)NC(=O)CCOCCOCCOCCOCCOCCOCCOCCOCCOCCOCCOCCOCCOCCOCCOCCOCCOCCOCCOCCOCCOCCOCCOCCOCCNC(=O)Cc2ccc(Br)cc2)C(N)=O)NC(=O)[C@H](CC(=O)O)NC(=O)[C@H](Cc2c[nH]cn2)NC(=O)[C@H](Cc2ccc3ccccc3c2)NC(=O)[C@H](CC(N)=O)NC(=O)[C@H](CC(N)=O)NC1=O [compound 255, Ac-W-T-I-C(3)-N-N-(2Nal)-H-D-C(3)-W-P-{D-Lys[PEG8-D-Lys(DOTA)-PEG24-COCH2Ph-4Br]}-NH2] | 8.00 to 9.00
9 | 8.00 to 9.00 | CC[C@H](C)[C@H](NC(=O)[C@@H](NC(=O)[C@H](Cc1c[nH]c2ccccc12)NC(C)=O)[C@@H](C)O)C(=O)N[C@H]1CSCc2ccc(cc2)CSC[C@@H](C(=O)N[C@@H](Cc2c[nH]c3ccccc23)C(=O)N2CCC[C@H]2C(=O)N[C@H](CCCCNC(=O)CN2CCN(CC(=O)O)CCN(CC(=O)O)CCN(CC(=O)O)CC2)C(N)=O)NC(=O)[C@H](CC(=O)O)NC(=O)[C@H](Cc2cnc[nH]2)NC(=O)[C@H](Cc2ccc3ccccc3c2)NC(=O)[C@H](CC(N)=O)NC(=O)[C@H](CC(N)=O)NC1=O [compound 256, Ac-W-T-I-C(3)(pDBX)-N-N-(2Nal)-H-D-C(2)-W-P-[D-Lys(DOTA)]-NH2] (Ac-WTICNN[2Nal]HDCWP[dK](DOTA)-NH2; linker 4-10 via pXylylene) | 
10 | > 9.00 | CC(=O)N[C@@H](Cc1c[nH]c2ccc(F)cc12)C(=O)N[C@H](C(=O)N[C@H](C(=O)N[C@H]1CSSC[C@@H](C(=O)N[C@@H](Cc2c[nH]c3ncccc23)C(=O)N2C[C@H](F)C[C@H]2C(=O)N[C@H](CCCCNC(=O)CN2CCN(CC(=O)O)CCN(CC(=O)O)CCN(CC(=O)O)CC2)C(N)=O)NC(=O)[C@H](CC(=O)O)NC(=O)[C@H](Cc2cnc[nH]2)NC(=O)[C@H](Cc2ccc3ccccc3c2)NC(=O)[C@H](CC(N)=O)NC(=O)[C@H](CC(N)=O)NC1=O)C(C)(C)C)[C@@H](C)O [compound 257, Ac-(5Fluoro-W)-T-(Tbg)-C(3)-N-N-(2Nal)-H-D-C(3)-(7Aza-W)-(trans4Fluoro-P)-[D-Lys(DOTA)]-NH2] (Ac-[Trp(5-F)]T[Tle]CNN[2Nal]HDC[Trp(7-aza)][Pro(trans-4-F)][dK](DOTA)-NH2; disulfide 4-10) | 
